Experimental data published in US20210299109A1, “AGENTS FOR TREATING CANCER AND METHODS FOR IDENTIFYING SAID AGENTS” (MINERVA BIOTECHNOLOGIES CORPORATION, priority 2017, published 2021).

What was measured:
[1] = test system: human naïve state stem cells; assay: stem cell drug screen on naïve state stem cells; type: cell-based; details: for effect on naïve stem cells: pluripotency, growth, differentiation (first panel, FIG. 2, 7-10): 6 uM, 3 days, with or without NME7AB
Procedure: (§1) The stem cell screening assay, was performed in both the presence and absence of the stem cell growth factors: NME7AB for growing naïve stem cells or FGF for growing primed stem cells. If the cognate growth factor was present, then the biological or small molecule would have to compete away the growth factor to get an effect. Therefore, we expected to see more of an effect when the growth factor, FGF for primed stem cells or NME7AB or NME1 dimers for naïve stem cells, was absent. The effect of the compounds on stem cells was visually determined and compounds were ranked 0-4, with 4 being the greatest effect and 0 being no observable effect. The major effect that was observed was a change from pluripotent stem cell morphology, which is a cobblestone pattern of small round cells with a large nucleus to cytoplasm ratio, to that of differentiating stem cells, which are elongated, large and flattened cells with a smaller nucleus to cytoplasm ratio. […] […] In this particular case, the naïve state stem cells were maintained in a naïve state by culturing in a media containing NME7AB or NME1 dimers. However, other methods such as 2i and 5i (Silva et al., 2008, Nichols and Smith, 2009, Theunissen et al., 2014)] can be used to maintain stem cells in a more naïve state. In this case primed state stem cells were cultured in bFGF over a layer of MEFs, although it is known that any bFGF containing media will maintain stem cells in the primed state.
Percent inhibition of cancer cell migration was performed in a wound healing assay. The percent area that the invading cancer cells occupied, in the presence of a drug candidate compared to the controls, was quantified by Image J cell software which enables cell counting from photographs. IC50's were calculated by performing migration experiments at several compound concentrations and then applying Hill's equation. Inhibition of cancer cell proliferation was quantified by automated cell counting in the presence or absence of a drug candidate. Here, the inhibition of cancer cell proliferation was scored 1 if proliferation was inhibited by 25%, 2 if inhibited by 50%, 3 for 75% and 4 for the highest degree of inhibition of proliferation, and 0 for the lowest. The effect of the drug candidates on stem cell pluripotency or proliferation was scored by eye, based on cell morphology and cell density, with 0 being no change in morphology or cell number and 4 being the most profound effect, with the stem cells taking on the morphology of a differentiating cell, along with much fewer cells indicative of inhibition of proliferation. As an example, FIGS. 30A-30F show photographs of naïve stem cell, primed stem cell and fibroblast controls. FIGS. 31A-31F show the effect of compounds of the invention on naïve state stem cells, where the number of ‘+’ signs indicates the score from 0-4 of ability of compound to inhibit pluripotency, proliferation of naïve stem cells or ability to induce their differentiation. […] FIGS. 36-44 and 65-87 show photographs and IC50 graphs of the compounds of the invention, inhibiting cancer cell migration and invasion. Cancer cell migration is a hallmark of metastatic cancer.
Stem cells whether embryonic or induced pluripotent stem (iPS) cells were cultured in a minimal, serum-free media that contained human recombinant NME7AB at a concentration of 2-32 nM wherein 4-8 nM is preferred and 4 nM is more preferred. […]

[2] = test system: human primed state stem cells; assay: stem cell drug screen on primed state stem cells; type: cell-based
Procedure: as §1
Percent inhibition of cancer cell migration was performed in a wound healing assay. The percent area that the invading cancer cells occupied, in the presence of a drug candidate compared to the controls, was quantified by Image J cell software which enables cell counting from photographs. IC50's were calculated by performing migration experiments at several compound concentrations and then applying Hill's equation. Inhibition of cancer cell proliferation was quantified by automated cell counting in the presence or absence of a drug candidate. Here, the inhibition of cancer cell proliferation was scored 1 if proliferation was inhibited by 25%, 2 if inhibited by 50%, 3 for 75% and 4 for the highest degree of inhibition of proliferation, and 0 for the lowest. The effect of the drug candidates on stem cell pluripotency or proliferation was scored by eye, based on cell morphology and cell density, with 0 being no change in morphology or cell number and 4 being the most profound effect, with the stem cells taking on the morphology of a differentiating cell, along with much fewer cells indicative of inhibition of proliferation. As an example, FIGS. 30A-30F show photographs of naïve stem cell, primed stem cell and fibroblast controls. […]

human fibroblasts = assay: effect on fibroblast proliferation (surrogate for normal cells); type: cell-based; details: 500 nM final concentration
Description: However, fibroblasts are more differentiated than stem cells but are able to self-replicate for defined periods of time. We tested selected compounds of the invention to determine if these compounds were just cytotoxic or if they selectively affected stem cells and, importantly, cancer cells, but not normal, healthy cells. Here, we used fibroblasts as a surrogate for normal cells. […] […] Each compound was scored for its effect on fibroblast proliferation where “+” indicates 25% inhibition of fibroblast growth, “++” 50% inhibition and “+++” 75% inhibition of growth.

naïve stem cells = assay: RT-PCR of differentiation markers and super-enhancer target genes in naïve stem cells; type: cell-based, human
Description: The genes whose expression increased as a result of treatment with the compounds of the invention, in a concentration dependent manner, are fibronectin and vimentin, which both increase as stem cells initiate differentiation and NF1, which is one of the first genes to increase when stem cells begin to differentiate down the neural lineage. […] Thus, compounds of the invention that induce markers of differentiation are useful for the treatment of cancers, because cancer cells, by definition, have de-differentiated, which allows them to continually self-replicate. […] Expression of metastatic marker E-cadherin was reduced and expression of differentiation markers fibronectin, vimentin and NF1 were increased. Novel compounds of the invention are highly specific. […] Although we discovered that NME1 dimers, NME7AB and NME7-X1 are all activating ligands of the MUC1* growth factor receptor and they bind to its extracellular domain, we have developed ample evidence that both NME7AB and NME7-X1 have other binding partners and can exert oncogenic effects, independent of MUC1*.
We first used RT-PCR to measure expression of these super-enhancer target genes and other genes of interest in naïve stem cells in the presence or absence of a few compounds of the invention. […] We also measured expression of microRNA-145, in response to treatment with compounds of the invention. […]

cancer cells = details: cited from earlier work
[3] = test system: MUC1* positive cancer cells; details: in vitro; cited from earlier work

**Q.** Which “effect on naïve stem cell growth” value [1] does the source give for Cc1sc2c(c1C)C(c1ccc(Cl)cc1)=N[C@@H](CC(=O)OC(C)(C)C)c1nnc(C)n1-2 [JQ1(+)] here?
**A.** inhibitory effect

**Q.** What about the “induction of differentiation and growth inhibition of naïve state stem cells” value ([1]; 500 nM or 1 uM, cells cultured in NME7AB or NME1 dimers) of the same molecule?
**A.** dramatically induced differentiation

**Q.** What about the “effect on primed stem cell growth” value [2] of the same molecule?
**A.** not primed stem cell growth

**Q.** What about the “effect on the size of primed stem cell colonies” value ([2]; treated for 3 days, 500 nM or 1 uM) of the same molecule?
**A.** modest effect

**Q.** And the “induction of differentiation of primed state stem cells” value ([2]; treated for 3 days, JQ1 at 500 nM or 1 uM, bFGF absent)?
**A.** None of these agents appeared to induce differentiation

**Q.** What about the effect on fibroblasts (human fibroblasts) of the same molecule?
**A.** same effect on fibroblasts as it does on primed state stem cells

**Q.** What about the “up-regulation of markers of differentiation (fibronectin, vimentin, NF1) in naïve stem cells” value (naïve stem cells) of the same molecule?
**A.** did not cause up-regulation of markers of differentiation

**Q.** What does the source list for “FLR peptide: synthetic peptide corresponding to the extracellular domain of MUC1*, FLR also known as PSMGFR (SEQ ID NO:3) (GTINVHDVETQFNQYKTEAASRYNLTISDVSVSDVPFPFSAQSGA; the extracellular domain of Native Primary Sequence of the MUC1 Growth Factor Receptor (nat-PSMGFR - an example of “PSMGFR”))”?
**A.** effect on naïve stem cells: pluripotency, growth, differentiation (first panel, FIG. 2, 7-10) [1]: induced differentiation; inhibition of the transition of regular cancer cells to metastatic cancer cells (cancer cells): inhibit the transition of regular cancer cells to metastatic cancer cells

**Q.** For COC(=O)c1ccc(C2c3[nH]c4ccccc4c3CCN2C(=O)c2cccc(Cl)c2)cc1 (centres unmarked) [MN0642], which “effect on naïve stem cells: pluripotency, growth, differentiation (first panel, FIG. 2, 7-10)” value [1] is on record?
**A.** induced differentiation

**Q.** What about the “inhibition of growth of cancer cells” value [3] of the same molecule?
**A.** inhibit the growth of cancer cells in vitro

**Q.** Which “effect on naïve stem cells: pluripotency, growth, differentiation (first panel, FIG. 2, 7-10)” value [1] does the source give for CCCCNC(=O)N1CCc2c([nH]c3ccccc23)C1C(C)c1ccccc1 (centres unmarked) [MN1130] here?
**A.** induced differentiation

**Q.** What about the “effect on primed stem cells (first panel, FIG. 2-6)” value ([2]; 6 uM, 3 days, with or without FGF) of the same molecule?
**A.** modest effect

**Q.** With Cc1[nH]c(/C=C2\C(=O)Nc3ccc(S(=O)(=O)N(C)c4cccc(Cl)c4)cc32)c(C)c1C(=O)N1CCN(C)CC1 [SU11274] as the molecule, how does the “up-regulation of markers of differentiation (fibronectin, vimentin, NF1) in naïve stem cells” value (naïve stem cells) read?
**A.** did not cause up-regulation of markers of differentiation
